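All cell lines were grown in 96-well plates and treated with compound for 48 hours. TGI marks complete inhibition of growth.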
How the values were obtained:
Experiment in all cases: DTP human tumour cell line panel, 48 h
CAKI-1 renal = system: CAKI-1 renal
NCI-H460 lung = system: NCI-H460 lung
SF-295 CNS = system: SF-295 CNS
HT29 colon = system: HT29 colon
XF 498 CNS = system: XF 498 CNS
SNB-75 CNS = system: SNB-75 CNS
A549 NSCLC = system: A549 NSCLC
KM12 colon = system: KM12 colon
SK-MEL-2 melanoma = system: SK-MEL-2 melanoma
M19-MEL melanoma = system: M19-MEL melanoma
COLO 205 colon = system: COLO 205 colon
HOP-62 NSCLC = system: HOP-62 NSCLC
RXF 393 renal = system: RXF 393 renal
K-562 leukemia = system: K-562 leukemia
SN12C renal = system: SN12C renal
LXFL 529 NSCLC = system: LXFL 529 NSCLC
U251 CNS = system: U251 CNS
DLD-1 colon = system: DLD-1 colon
HCC-2998 colon = system: HCC-2998 colon
NCI-H226 lung = system: NCI-H226 lung
RXF-631 renal = system: RXF-631 renal
786-0 renal = system: 786-0 renal
OVCAR-8 ovarian = system: OVCAR-8 ovarian
NCI-H522 lung = system: NCI-H522 lung
DMS 114 small cell lung = system: DMS 114 small cell lung
MOLT-4 leukemia = system: MOLT-4 leukemia
SF-268 CNS = system: SF-268 CNS
UACC-257 melanoma = system: UACC-257 melanoma
UACC-62 melanoma = system: UACC-62 melanoma
SR leukemia = system: SR leukemia
RPMI-8226 leukemia = system: RPMI-8226 leukemia
SNB-78 CNS = system: SNB-78 CNS
UO-31 renal = system: UO-31 renal
IGROV1 ovarian = system: IGROV1 ovarian
NCI-H23 lung = system: NCI-H23 lung
LOX IMVI melanoma = system: LOX IMVI melanoma
HOP-92 NSCLC = system: HOP-92 NSCLC
SK-OV-3 ovarian = system: SK-OV-3 ovarian
OVCAR-4 ovarian = system: OVCAR-4 ovarian
SF-539 CNS = system: SF-539 CNS
HCT-116 colon = system: HCT-116 colon
HCT-15 colon = system: HCT-15 colon
A498 renal = system: A498 renal
SW-620 colon = system: SW-620 colon
M14 melanoma = system: M14 melanoma
TK-10 renal = system: TK-10 renal
EKVX NSCLC = system: EKVX NSCLC
SK-MEL-28 melanoma = system: SK-MEL-28 melanoma
CCRF-CEM leukemia = system: CCRF-CEM leukemia
OVCAR-3 ovarian = system: OVCAR-3 ovarian
OVCAR-5 ovarian = system: OVCAR-5 ovarian
ACHN renal = system: ACHN renal
HL-60(TB) leukemia = system: HL-60(TB) leukemia
SNB-19 CNS = system: SNB-19 CNS
HOP-18 NSCLC = system: HOP-18 NSCLC
DMS 273 small cell lung = system: DMS 273 small cell lung
KM20L2 colon = system: KM20L2 colon
SK-MEL-5 melanoma = system: SK-MEL-5 melanoma
MALME-3M melanoma = system: MALME-3M melanoma

Measured: TGI

O=C1c2ccccc2C(=O)c2c1cc(S(=O)(=O)O)c(O)c2O
32.6 µM: XF 498 CNS
not listed: HL-60(TB) leukemia | SNB-19 CNS | HOP-18 NSCLC | DMS 273 small cell lung | KM20L2 colon | SK-MEL-5 melanoma | MALME-3M melanoma
> 100 µM: all other assays above

COc1ccc2c(c1)[n+](=O)c(C(=O)C/C(=N/OCCCc1ccccc1)C(=O)NC13CC4CC(CC(C4)C1)C3)c(C)n2[O-]
not listed: RXF 393 renal | HOP-92 NSCLC
> 100 µM: all other assays above
